Experimental data from US6498181B1, “Synergistic tumorcidal response induced by histamine” (Maxim Pharmaceuticals, priority 1999, dated 2002).
Read-outs that look alike come from different tables or passages of the source.

Assays:
[1] = Experimental: Five patients suffering from acute myleogenous leukemia (AML) in remission received treatment with histamine dihydrochloride diluted in sterile sodium chloride. Histamine was administered morning and night at separate subcutaneous injection sites over a period of 21 consecutive days. The histamine was given as subcutaneous injections using 1 ml syringes containing […] of histamine per ml. The histamine treatment was given twice daily (morning and night) at a dosage of 0.4 to 0.7 mg histamine per injection (i.e., a daily total dose of histamine of 0.8 to 1.4 mg per day).
Peripheral blood venous samples were drawn in 10 ml heparinized test tubes before the onset of treatment and weekly thereafter. The samples were drawn at least 8 hours after the last injections of histamine. The concentration of histamine in the whole blood samples was analyzed by the use of a double antibody radioimmunoassay kit obtained from Bionerica, Inc., Newport Beach, Calif. 92663 (catalog number 1051). The manufacturer's instructions provided with the kit, dated June, 1989, were followed. Blood histamine levels were measured at the indicated times.

[2] = system: human SK-N-SH neuroblastoma xenografts; settings: histamine 0.5 mg per day tail vein with 10 μCi 131I labeled BW575/9 mAb, versus BW575/9 by itself
prostate tumor [3] = settings: histamine s.c. 0.5-2.0 mg per day one week before external beam radiation (60-70 Gy), continued after
Experimental: The tumorcidal response is evaluated by determining the level of PSA antigen in the patient over time according to conventional methods.

breast cancer = settings: histamine s.c. 0.5-1.0 mg per injection 1-2 times per day with humanized 131I labeled p185^HER-2 antibody
Experimental: Accordingly, a pharmaceutically acceptable form of histamine in a sterile carrier solution is injected subcutaneously into the patient for one week (0.5-1.0 mg per injection 1-2 times per day) prior to antibody therapy.
The tumorcidal response is evaluated by determining the level of p185^HER-2 receptor in the patient over time according to conventional methods. (Quak and van Dongen, Eur. Arch. Otorhinolaryngol 251:1-5(1994)).

[4] = Effect of duration of histamine administration on efficacy and side effects; settings: administered over less than 1 to 3 minutes; anaphalaxis, heart failure, broncospasm, flushing, headache etc.
melanoma = settings: histamine s.c. 0.5-1.0 mg per injection 1-2 times per day with vaccine of killed mixture of three melanomic cell lines
Source text: (Quak and van Dongen, Eur. Arch. Otorhinolaryngol 251:1-5(1994)).

prostate tumor [5] = settings: histamine s.c. 0.5-2.0 mg per day one week before surgery, blood histamine kept at at least about 0.2 μM after
Experimental: Accordingly, a pharmaceutically acceptable form of histamine in a sterile carrier solution is injected subcutaneously into a patient suffering from prostate cancer for one week (0.5-2.0 mg per day) prior to surgery.
Once the tumor is removed, circulating levels of blood histamine are maintained at at least about 0.2 μM until a complete response is observed. The tumorcidal response is evaluated by determining the level of PSA antigen in the patient over time according to conventional methods.

[6] = system: follicular non-Hodgkins lymphoma; settings: cited from earlier work

Molecule: NCCc1c[nH]cn1 [histamine]
- persistence of circulating blood histamine levels ([1]; even after histamine administration was discontinued): remained elevated for sustained periods of time
- circulating blood histamine concentration following histamine administration ([1]; five AML patients in remission, s.c. 0.4 to 0.7 mg per injection twice daily, 21 days, samples at least 8 hours after last injection, less than 0.2 μM at start): at least 0.2 μM
- tumorcidal response [2]: greater tumorcidal response
- tumorcidal response (PSA antigen level over time) (prostate tumor [3]): synergistic tumorcidal response is observed
- tumorcidal response (p185^HER-2 receptor level over time) (breast cancer): synergistic tumorcidal response is observed
- side effects on rapid administration [4]: more pronounced and serious sides effects
- tumorcidal response (presence of melanoma over time) (melanoma): synergistic tumorcidal response is observed
- tumorcidal response (PSA antigen level over time) (prostate tumor [5]): synergistic tumorcidal response is observed

Molecule: ^131I labeled anti-B1 (Bexxar) mAb: 131I radiolabeled mAb raised to the CD-20 antigens expressed on the surface of mature B-cells
- treatment outcome in clinical trials [6]: successful in treating follicular non-Hodgkins lymphoma
